Measurements reported in patent US5556744A, “Methods and compositions for diagnosing and treating certain HIV infected patients” (The Trustees of the University of Pennsylvania, priority 1994, dated 1996).

Test system: maternal HIV+ sera (antibodies)
Assay: RIA / ELISA binding of maternal HIV+ sera to gp120 and gp41 peptides (Example 3)
Parameters: species or system human
How it was run: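 Peptides were coated at 10 μg/ml in carbonate buffer pH 9.6 and blocked with 1% BSA. Sera at 1:50 and 1:500 were incubated overnight at 4°C and detected with ¹²⁵I anti-human IgG (RIA) or HRP/TMB at OD450 (ELISA). Specific binding was taken as peptide minus no-peptide wells, scored as a ratio to normal human serum.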

[1] = Serum No. 1, Non-Transmission Group
[2] = Serum No. 2, Non-Transmission Group
[3] = Serum No. 3, Non-Transmission Group
[4] = Serum No. 4, Transmission Group
[5] = Serum No. 5, Transmission Group
[6] = Serum No. 6, Non-Transmission Group
[7] = Serum No. 7, Non-Transmission Group
[8] = Serum No. 8, Non-Transmission Group
[9] = Serum No. 9, Non-Transmission Group
[10] = Serum No. 10, Transmission Group
[11] = Serum No. 11, Non-Transmission Group
[12] = Serum No. 12, Non-Transmission Group
[13] = Serum No. 13, Transmission Group
[14] = Serum No. 14, Transmission Group
[15] = Serum No. 15, Transmission Group
[16] = Serum No. 16, Non-Transmission Group
[17] = Serum No. 17, Non-Transmission Group
[18] = Serum No. 18, Non-Transmission Group
[19] = Serum No. 19, Transmission Group
[20] = Serum No. 20, Non-Transmission Group

Sequence | Binding of maternal HIV+ serum to peptide (sera/NHS ratio) [1] | Binding of maternal HIV+ serum to peptide (sera/NHS ratio) [2] | Binding of maternal HIV+ serum to peptide (sera/NHS ratio) [3] | Binding of maternal HIV+ serum to peptide (sera/NHS ratio) [4] | Binding of maternal HIV+ serum to peptide (sera/NHS ratio) [5] | Binding of maternal HIV+ serum to peptide (sera/NHS ratio) [6] | Binding of maternal HIV+ serum to peptide (sera/NHS ratio) [7] | Binding of maternal HIV+ serum to peptide (sera/NHS ratio) [8] | Binding of maternal HIV+ serum to peptide (sera/NHS ratio) [9] | Binding of maternal HIV+ serum to peptide (sera/NHS ratio) [10] | Binding of maternal HIV+ serum to peptide (sera/NHS ratio) [11] | Binding of maternal HIV+ serum to peptide (sera/NHS ratio) [12] | Binding of maternal HIV+ serum to peptide (sera/NHS ratio) [13] | Binding of maternal HIV+ serum to peptide (sera/NHS ratio) [14] | Binding of maternal HIV+ serum to peptide (sera/NHS ratio) [15] | Binding of maternal HIV+ serum to peptide (sera/NHS ratio) [16] | Binding of maternal HIV+ serum to peptide (sera/NHS ratio) [17] | Binding of maternal HIV+ serum to peptide (sera/NHS ratio) [18] | Binding of maternal HIV+ serum to peptide (sera/NHS ratio) [19] | Binding of maternal HIV+ serum to peptide (sera/NHS ratio) [20] | also measured
VTRIVELLGRRGWEALKYWW [Peptide 57] | - (specific OD450 or cpm of sera sample binding to peptide divided by the specific OD450 or cpm of NHS sample binding to peptide, which value is less than 2) | - (specific OD450 or cpm of sera sample binding to peptide divided by the specific OD450 or cpm of NHS sample binding to peptide, which value is less than 2) | - (specific OD450 or cpm of sera sample binding to peptide divided by the specific OD450 or cpm of NHS sample binding to peptide, which value is less than 2) | - (specific OD450 or cpm of sera sample binding to peptide divided by the specific OD450 or cpm of NHS sample binding to peptide, which value is less than 2) | - (specific OD450 or cpm of sera sample binding to peptide divided by the specific OD450 or cpm of NHS sample binding to peptide, which value is less than 2) | - (specific OD450 or cpm of sera sample binding to peptide divided by the specific OD450 or cpm of NHS sample binding to peptide, which value is less than 2) | - (specific OD450 or cpm of sera sample binding to peptide divided by the specific OD450 or cpm of NHS sample binding to peptide, which value is less than 2) | ++ (which value is greater than 3) | - (specific OD450 or cpm of sera sample binding to peptide divided by the specific OD450 or cpm of NHS sample binding to peptide, which value is less than 2) | - (specific OD450 or cpm of sera sample binding to peptide divided by the specific OD450 or cpm of NHS sample binding to peptide, which value is less than 2) | - (specific OD450 or cpm of sera sample binding to peptide divided by the specific OD450 or cpm of NHS sample binding to peptide, which value is less than 2) | - (specific OD450 or cpm of sera sample binding to peptide divided by the specific OD450 or cpm of NHS sample binding to peptide, which value is less than 2) | - (specific OD450 or cpm of sera sample binding to peptide divided by the specific OD450 or cpm of NHS sample binding to peptide, which value is less than 2) | - (specific OD450 or cpm of sera sample binding to peptide divided by the specific OD450 or cpm of NHS sample binding to peptide, which value is less than 2) | - (specific OD450 or cpm of sera sample binding to peptide divided by the specific OD450 or cpm of NHS sample binding to peptide, which value is less than 2) | - (specific OD450 or cpm of sera sample binding to peptide divided by the specific OD450 or cpm of NHS sample binding to peptide, which value is less than 2) | - (specific OD450 or cpm of sera sample binding to peptide divided by the specific OD450 or cpm of NHS sample binding to peptide, which value is less than 2) | - (specific OD450 or cpm of sera sample binding to peptide divided by the specific OD450 or cpm of NHS sample binding to peptide, which value is less than 2) | - (specific OD450 or cpm of sera sample binding to peptide divided by the specific OD450 or cpm of NHS sample binding to peptide, which value is less than 2) | + (which value is between 2 to 3) | –
KQFINMWQEVGKAMYAPP [Peptide B138] | + (which value is between 2 to 3) | + (which value is between 2 to 3) | - (specific OD450 or cpm of sera sample binding to peptide divided by the specific OD450 or cpm of NHS sample binding to peptide, which value is less than 2) | + (which value is between 2 to 3) | + (which value is between 2 to 3) | + (which value is between 2 to 3) | ++ (which value is greater than 3) | ++ (which value is greater than 3) | - (specific OD450 or cpm of sera sample binding to peptide divided by the specific OD450 or cpm of NHS sample binding to peptide, which value is less than 2) | - (specific OD450 or cpm of sera sample binding to peptide divided by the specific OD450 or cpm of NHS sample binding to peptide, which value is less than 2) | - (specific OD450 or cpm of sera sample binding to peptide divided by the specific OD450 or cpm of NHS sample binding to peptide, which value is less than 2) | - (specific OD450 or cpm of sera sample binding to peptide divided by the specific OD450 or cpm of NHS sample binding to peptide, which value is less than 2) | - (specific OD450 or cpm of sera sample binding to peptide divided by the specific OD450 or cpm of NHS sample binding to peptide, which value is less than 2) | - (specific OD450 or cpm of sera sample binding to peptide divided by the specific OD450 or cpm of NHS sample binding to peptide, which value is less than 2) | - (specific OD450 or cpm of sera sample binding to peptide divided by the specific OD450 or cpm of NHS sample binding to peptide, which value is less than 2) | - (specific OD450 or cpm of sera sample binding to peptide divided by the specific OD450 or cpm of NHS sample binding to peptide, which value is less than 2) | - (specific OD450 or cpm of sera sample binding to peptide divided by the specific OD450 or cpm of NHS sample binding to peptide, which value is less than 2) | - (specific OD450 or cpm of sera sample binding to peptide divided by the specific OD450 or cpm of NHS sample binding to peptide, which value is less than 2) | - (specific OD450 or cpm of sera sample binding to peptide divided by the specific OD450 or cpm of NHS sample binding to peptide, which value is less than 2) | - (specific OD450 or cpm of sera sample binding to peptide divided by the specific OD450 or cpm of NHS sample binding to peptide, which value is less than 2) | Number of maternal sera binding to peptide (20 maternal sera): Seven; Number of binding maternal sera from the transmission group (vertical transmission group (7 sera)): two
